This assay has as its target T1, human C3a receptor (C3aR) (Homo sapiens, UniProt Q16581).
T1 construct: expressed in transfected cells
T1 sequence (Q16581 1-482): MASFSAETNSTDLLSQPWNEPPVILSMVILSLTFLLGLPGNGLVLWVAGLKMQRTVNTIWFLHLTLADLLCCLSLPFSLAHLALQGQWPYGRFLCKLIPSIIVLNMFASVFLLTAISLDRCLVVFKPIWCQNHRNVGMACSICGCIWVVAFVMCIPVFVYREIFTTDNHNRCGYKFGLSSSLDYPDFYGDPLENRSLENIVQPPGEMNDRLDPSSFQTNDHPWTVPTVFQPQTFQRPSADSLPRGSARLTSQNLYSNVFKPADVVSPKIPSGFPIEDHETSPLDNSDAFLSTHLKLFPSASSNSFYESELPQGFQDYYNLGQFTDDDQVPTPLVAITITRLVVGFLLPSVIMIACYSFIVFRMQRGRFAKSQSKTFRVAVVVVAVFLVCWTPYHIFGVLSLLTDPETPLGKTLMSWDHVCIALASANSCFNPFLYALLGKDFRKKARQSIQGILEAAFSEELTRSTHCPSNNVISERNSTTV
Put plainly: Inhibition of human [125I]-C3a binding to human C3a receptor (SPA, membranes of HEK293 cells expressing recombinant C3aR). The following applies: 0.1 nM [125I]-C3a, 3 hours at room temperature; Table 1. The protocol: Inhibition of human [^125I]-C3a binding to human C3a receptor
Binding of human [^125I]-C3a to human C3a receptor (C3aR) was done using cell membranes from HEK293 cells stably expressing recombinant C3aR, in a homogeneous scintillation proximity assay (SPA). The C3aR cell membranes were pre-coupled over-night at 4° C. to WGA-PVT SPA beads (Amersham) at a ratio of 10 μg cell membrane to 0.5 mg beads/assay. Assay was performed in 96-well microtiter Optiplates (Packard) by mixing coupled beads and 0.1 nM [^125I]-C3a (2200 Ci/mmol, Perkin Elmer Life Sciences), in a total volume of […] binding buffer (20 mM HEPES, pH 7.4, 125 mM NaCl, 5 mM KCl, 1 mM CaCl2, 1 mM MgCl2, 0.25% BSA, 0.2% CHAPS). Test compounds were diluted in DMSO and were tested for their inhibitory potential in the assay (final concentration≦1% DMSO). Incubation was done for 3 hours at room temperature followed by reading in a TopCount scintillation microplate reader. Non-specific binding was determined by adding 1 μM unlabeled C3a (Calbiochem) to the assay mixture. Calculation of the IC50 was done as above using a nonlinear least square fitting program, with Graphpad Prism.

The results in this text go back to patent publication US20080188528A1, “Modulators of C3a receptor and methods of use thereof” (priority 2006, published 2008).

Structures are written as SMILES. Counter-ions that a name gives are not always drawn.

With `N=C(N)NCCC[C@H](NC(=O)c1cccn(Cc2ccccc2)c1=O)C(=O)O` [Compound 1, (2S)-2-{[(1-benzyl-2-oxo-1,2-dihydropyridin-3-yl)carbonyl]amino}-5-carbamimidamidopentanoic acid•TFA], the 50% inhibitory concentration (IC50) was 50 to 500 nM.

As for `N=C(N)NCCC[C@@H](NC(=O)c1cccn(Cc2ccccc2)c1=O)C(=O)O` [Compound 2, (2R)-2-{[(1-benzyl-2-oxo-1,2-dihydropyridin-3-yl)carbonyl]amino}-5-carbamimidamidopentanoic acid•TFA], the IC50 is 500 to 20000 nM.

As to `N=C(N)NCCC[C@H](NC(=O)c1cccn(Cc2ccccc2Br)c1=O)C(=O)O` [Compound 3, (2S)-2-({[1-(2-bromobenzyl)-2-oxo-1,2-dihydropyridin-3-yl]carbonyl}amino)-5-carbamimidamidopentanoic acid•TFA], the IC50 is less than 50 nM.

With `N=C(N)NCCC[C@H](NC(=O)c1cccn(Cc2cccc(Br)c2)c1=O)C(=O)O` [Compound 4, (2S)-2-({[1-(3-bromobenzyl)-2-oxo-1,2-dihydropyridin-3-yl]carbonyl}amino)-5-carbamimidamidopentanoic acid•TFA], the IC50 is less than 50 nM.

As for `N=C(N)NCCC[C@H](NC(=O)c1cccn(Cc2ccc(Br)cc2)c1=O)C(=O)O` [Compound 5, (2S)-2-({[1-(4-bromobenzyl)-2-oxo-1,2-dihydropyridin-3-yl]carbonyl}amino)-5-carbamimidamidopentanoic acid•TFA], the IC50 is less than 50 nM.

Take `CC(C)c1ccccc1Cn1cccc(C(=O)N[C@@H](CCCNC(=N)N)C(=O)O)c1=O` [Compound 6, (2S)-5-carbamimidamido-2-({[1-(2-isopropylbenzyl)-2-oxo-1,2-dihydropyridin-3-yl]carbonyl}amino)pentanoic acid•TFA]: the half-maximal inhibitory concentration (IC50) fell in the range of 50 to 500 nM.

As to `CC(C)c1cccc(Cn2cccc(C(=O)N[C@@H](CCCNC(=N)N)C(=O)O)c2=O)c1` [Compound 7, (2S)-5-carbamimidamido-2-({[1-(3-isopropylbenzyl)-2-oxo-1,2-dihydropyridin-3-yl]carbonyl}amino)pentanoic acid•TFA], the 50% inhibitory concentration (IC50) was 50 to 500 nM.

`CC(C)c1ccc(Cn2cccc(C(=O)N[C@@H](CCCNC(=N)N)C(=O)O)c2=O)cc1` [Compound 8]: the IC50 is less than 50 nM.

With `Cn1cccc(C(=O)N[C@@H](CCCNC(=N)N)C(=O)O)c1=O` [Compound 9, (2S)-5-carbamimidamido-2-{[(1-methyl-2-oxo-1,2-dihydropyridin-3-yl)carbonyl]amino}pentanoic acid•TFA], the concentration for half-maximal inhibition (IC50) is 500 to 20000 nM.

Take `N=C(N)NCCC[C@H](NC(=O)c1cccn(C2c3ccccc3-c3ccccc32)c1=O)C(=O)O` [Compound 10, (2S)-5-carbamimidamido-2-({[1-(9H-fluoren-9-yl)-2-oxo-1,2-dihydropyridin-3-yl]carbonyl}amino)pentanoic acid•TFA]: the IC50 lay in the range of 50 to 500 nM.

Turning to `N=C(N)NCCC[C@H](NC(=O)c1cccn(CC(c2ccccc2)c2ccccc2)c1=O)C(=O)O` [Compound 11, (2S)-5-carbamimidamido-2-({[1-(2,2-diphenylethyl)-2-oxo-1,2-dihydropyridin-3-yl]carbonyl}amino)pentanoic acid•TFA], the 50% inhibitory concentration (IC50) was less than 50 nM.

Turning to `N=C(N)NCCC[C@H](NC(=O)c1cccn(CCC(c2ccccc2)c2ccccc2)c1=O)C(=O)O` [Compound 12, (2S)-5-carbamimidamido-2-({[1-(3,3-diphenylpropyl)-2-oxo-1,2-dihydropyridin-3-yl]carbonyl}amino)pentanoic acid•TFA], the 50% inhibitory concentration (IC50) was less than 50 nM.

On to `N=C(N)NCCC[C@H](NC(=O)c1cccn(Cc2ccc3ccccc3c2)c1=O)C(=O)O` [Compound 13, (2S)-5-carbamimidamido-2-({[1-(2-naphthylmethyl)-2-oxo-1,2-dihydropyridin-3-yl]carbonyl}amino)pentanoic acid•TFA], for which the half-inhibitory concentration (IC50) was less than 50 nM.

On to `N=C(N)NCCC[C@H](NC(=O)c1cccn(Cc2cccc3ccccc23)c1=O)C(=O)O` [Compound 14, (2S)-5-carbamimidamido-2-({[1-(1-naphthylmethyl)-2-oxo-1,2-dihydropyridin-3-yl]carbonyl}amino)pentanoic acid•TFA], for which the IC50 is less than 50 nM.

`N=C(N)NCCC[C@H](NC(=O)c1cccn(Cc2ccc3ccccc3n2)c1=O)C(=O)O` [Compound 15, (2S)-5-carbamimidamido-2-({[2-oxo-1-(quinolin-2-ylmethyl)-1,2-dihydropyridin-3-yl]carbonyl}amino)pentanoic acid•TFA]: the IC50 was in the range of 50 to 500 nM.

`CC1(C)CCC(C)(C)c2cc(Cn3cccc(C(=O)N[C@@H](CCCNC(=N)N)C(=O)O)c3=O)ccc21` [Compound 16, (2S)-5-carbamimidamido-2-[({2-oxo-1-[(5,5,8,8-tetramethyl-5,6,7,8-tetrahydro-2-naphthyl)methyl]-1,2-dihydropyridin-3-yl}carbonyl)amino]pentanoic acid•TFA]: the concentration for half-maximal inhibition (IC50) was in the range of 500 to 20000 nM.

Take `N=C(N)NCCC[C@H](NC(=O)c1cccn(Cc2ccc3cc(F)ccc3c2)c1=O)C(=O)O` [Compound 17, (2S)-5-carbamimidamido-2-[({1-[(6-fluoro-2-naphthyl)methyl]-2-oxo-1,2-dihydropyridin-3-yl}carbonyl)amino]pentanoic acid•TFA]: the IC50 is less than 50 nM.

On to `COc1cc2ccccc2cc1Cn1cccc(C(=O)N[C@@H](CCCNC(=N)N)C(=O)O)c1=O` [Compound 18, (2S)-5-carbamimidamido-2-[({1-[(3-methoxy-2-naphthyl)methyl]-2-oxo-1,2-dihydropyridin-3-yl}carbonyl)amino]pentanoic acid•TFA], for which the half-inhibitory concentration (IC50) lay in the range of 50 to 500 nM.

Turning to `COc1ccc2cc(Cn3cccc(C(=O)N[C@@H](CCCNC(=N)N)C(=O)O)c3=O)ccc2c1` [Compound 19, (2S)-5-carbamimidamido-2-[({1-[(6-methoxy-2-naphthyl)methyl]-2-oxo-1,2-dihydropyridin-3-yl}carbonyl)amino]pentanoic acid•TFA], the IC50 fell in the range of 50 to 500 nM.

`N=C(N)NCCC[C@H](NC(=O)c1cccn(Cc2ccccc2-c2ccccc2)c1=O)C(=O)O` [Compound 20, (2S)-2-({[1-(biphenyl-2-ylmethyl)-2-oxo-1,2-dihydropyridin-3-yl]carbonyl}amino)-5-carbamimidamidopentanoic acid•TFA]: the IC50 is less than 50 nM.

On to `N=C(N)NCCC[C@H](NC(=O)c1cccn(Cc2cccc(-c3ccccc3)c2)c1=O)C(=O)O` [Compound 21, (2S)-2-({[1-(biphenyl-3-ylmethyl)-2-oxo-1,2-dihydropyridin-3-yl]carbonyl}amino)-5-carbamimidamidopentanoic acid•TFA], for which the IC50 lay within 50 to 500 nM.

As to `N=C(N)NCCC[C@H](NC(=O)c1cccn(Cc2ccc(-c3ccccc3)cc2)c1=O)C(=O)O` [Compound 22, (2S)-2-({[1-(biphenyl-4-ylmethyl)-2-oxo-1,2-dihydropylidin-3-yl]carbonyl}amino)-5-carbamimidamidopentanoic acid], the IC50 was less than 50 nM.

Take `N=C(N)NCCC[C@H](NC(=O)c1cccn(Cc2ccccc2Cc2ccccc2)c1=O)C(=O)O` [Compound 23, (2S)-2-({[1-(2-benzylbenzyl)-2-oxo-1,2-dihydropyridin-3-yl]carbonyl}amino)-5-carbamimidamidopentanoic acid•TFA]: the IC50 was less than 50 nM.
